Data from patent publication EP4467141A1, “PYRAZOLO-QUINOLINES AS SELECTIVE INHIBITORS OF GENOTOXIC STRESS-INDUCED IKK/NF- KB PATHWAYS FOR CANCER THERAPY” (Max-Delbrück-Centrum für Molekulare Medizin in der …, priority 2023, dated 2024).
Read-outs that look alike come from different tables or passages of the source.

Columns and labels:
Assay in all cases: Kinase panel study
Format in all cases: biochemical
PIK3C2G (PI3K-C2 gamma) = target: T1, PIK3C2G (PI3K-C2 gamma) (Homo sapiens, UniProt O75747); settings: for inhibition at 1 µM: 1000nM; for IC50: in vitro kinase panel, criterion of at most 2000 nM
T1 construct: purchased Thermo Fisher Scientific
T1 sequence (O75747 1-1486): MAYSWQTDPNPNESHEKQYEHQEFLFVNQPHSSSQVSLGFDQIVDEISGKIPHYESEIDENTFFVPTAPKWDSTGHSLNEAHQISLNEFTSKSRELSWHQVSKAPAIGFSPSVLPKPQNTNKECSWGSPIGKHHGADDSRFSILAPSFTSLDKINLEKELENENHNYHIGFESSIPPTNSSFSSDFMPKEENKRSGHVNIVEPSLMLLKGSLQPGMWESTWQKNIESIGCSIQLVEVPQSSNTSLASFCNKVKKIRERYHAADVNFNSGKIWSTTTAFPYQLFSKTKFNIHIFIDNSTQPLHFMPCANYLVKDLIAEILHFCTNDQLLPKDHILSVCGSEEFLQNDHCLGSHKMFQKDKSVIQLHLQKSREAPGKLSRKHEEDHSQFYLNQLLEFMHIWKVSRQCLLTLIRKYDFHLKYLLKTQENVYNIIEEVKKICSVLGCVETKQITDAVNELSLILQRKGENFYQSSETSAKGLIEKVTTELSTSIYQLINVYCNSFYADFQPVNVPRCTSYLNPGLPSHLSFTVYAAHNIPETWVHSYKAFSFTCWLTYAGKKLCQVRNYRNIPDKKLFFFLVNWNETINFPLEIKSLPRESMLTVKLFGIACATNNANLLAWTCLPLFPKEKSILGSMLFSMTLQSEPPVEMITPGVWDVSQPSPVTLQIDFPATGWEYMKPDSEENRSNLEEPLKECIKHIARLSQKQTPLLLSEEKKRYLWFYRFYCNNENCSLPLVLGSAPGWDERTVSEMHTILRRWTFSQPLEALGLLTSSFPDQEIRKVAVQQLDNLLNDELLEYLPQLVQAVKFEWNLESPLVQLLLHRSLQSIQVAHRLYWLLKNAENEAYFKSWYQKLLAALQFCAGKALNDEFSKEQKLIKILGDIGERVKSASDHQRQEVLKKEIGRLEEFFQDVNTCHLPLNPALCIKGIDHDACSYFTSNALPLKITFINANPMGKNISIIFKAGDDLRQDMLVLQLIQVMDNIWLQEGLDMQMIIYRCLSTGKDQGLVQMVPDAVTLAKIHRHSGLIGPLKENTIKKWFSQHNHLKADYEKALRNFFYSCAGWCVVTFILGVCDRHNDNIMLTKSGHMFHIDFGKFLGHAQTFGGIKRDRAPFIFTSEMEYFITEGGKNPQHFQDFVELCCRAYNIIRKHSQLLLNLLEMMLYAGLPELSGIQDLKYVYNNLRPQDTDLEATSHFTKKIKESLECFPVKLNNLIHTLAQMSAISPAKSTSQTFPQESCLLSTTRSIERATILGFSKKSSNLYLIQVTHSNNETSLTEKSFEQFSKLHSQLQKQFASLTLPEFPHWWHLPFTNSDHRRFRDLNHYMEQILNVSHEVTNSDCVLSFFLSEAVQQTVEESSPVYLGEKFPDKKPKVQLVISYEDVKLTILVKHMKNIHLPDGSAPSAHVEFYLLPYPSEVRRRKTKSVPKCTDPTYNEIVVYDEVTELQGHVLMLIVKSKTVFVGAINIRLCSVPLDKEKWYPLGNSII
Description: (§1) The Kinase panel study was entirely provided by Thermo Fisher Scientific using the two lead compounds MW01 and MW05 as well as their derivatives (MW01-E06, MW01-E10, MW01-E14, MW01-E18, MW05-E2, MW05-E3, MW05-E9 and MW05-E10. The experiment was performed using the ZLyte or Adapta protocol according to manufacturer standard operating procedures.
(§2) Based on their similar effects in our screen and molecular analysis, MW01 and MW05 were used in comparative target deconvolution studies seeking common targets despite their distinct structures. To eliminate previously identified kinases regulating NF-κB activity, such as IKK, as possible targets of MW01 and MW05, an in vitro kinase inhibition assay was performed. […] We next investigated if any of the shared kinase targets of MW01 and MW05 play a role in genotoxic stress-induced NF-κB activity and established several criteria to narrow down pathway-relevant targets. Considering the similar NF-κB inhibition phenotypes of both compounds, we hypothesized first that the target should be shared by both lead compounds. Second, based on the CaCo2 recovery values and experimental treatment concentration of 10 µM), the putative target kinase should have a low IC50 of, at most, 2000 nM for both lead compounds in the in vitro kinase panel (Fig. 2A). Based on these criteria alone, we arrived at a relatively short list of potential targets for further analysis, leaving only PIK3CG, PIK3C2G, and CLK2 (Fig. 2B). IC50 values for PIK3C2G by both lead compounds agreed best with these criteria, but RNA expression analysis indicates high tissue specificity as well as lack of expression of this kinase in our U2-OS model cell line, which we then eliminated from further analysis (Uhlén et al., 2015). […] Table 6: Percentage of inhibition of the indicated kinases by MW01 or MW05 at either 10 µM or 1 µM. n.d. = not determined.

PIP5K1C = target: T2, PIP5K1C (Homo sapiens, UniProt O60331); settings: for inhibition at 1 µM: 1000nM
T2 construct: purchased Thermo Fisher Scientific
Description: as §1, §2

BLK = target: T3, BLK (Homo sapiens, UniProt P51451); settings: for inhibition at 1 µM: 1000nM
T3 construct: purchased Thermo Fisher Scientific
Description: as §1, §2

[1] = target: T4, PIK3CA/PIK3R3 (p11 0 alpha/p55 gamma) (Homo sapiens, UniProt P42336); settings: for inhibition at 1 µM: 1000nM
T4 construct: purchased Thermo Fisher Scientific
Description: as §1, §2

[2] = read-out: Percentage of inhibition
[3] = 10000nM, read-out: Percentage of inhibition
[4] = PIK3C2G (PI3K-C2 gamma), compound at 10µM, read-out: % of Inhibition
[5] = PIP5K1C, compound at 10µM, read-out: % of Inhibition
[6] = BLK, compound at 10µM, read-out: % of Inhibition
[7] = PIK3CA/PIK3R3, compound at 10µM, read-out: % of Inhibition

T3 sequence (P51451 whole entry): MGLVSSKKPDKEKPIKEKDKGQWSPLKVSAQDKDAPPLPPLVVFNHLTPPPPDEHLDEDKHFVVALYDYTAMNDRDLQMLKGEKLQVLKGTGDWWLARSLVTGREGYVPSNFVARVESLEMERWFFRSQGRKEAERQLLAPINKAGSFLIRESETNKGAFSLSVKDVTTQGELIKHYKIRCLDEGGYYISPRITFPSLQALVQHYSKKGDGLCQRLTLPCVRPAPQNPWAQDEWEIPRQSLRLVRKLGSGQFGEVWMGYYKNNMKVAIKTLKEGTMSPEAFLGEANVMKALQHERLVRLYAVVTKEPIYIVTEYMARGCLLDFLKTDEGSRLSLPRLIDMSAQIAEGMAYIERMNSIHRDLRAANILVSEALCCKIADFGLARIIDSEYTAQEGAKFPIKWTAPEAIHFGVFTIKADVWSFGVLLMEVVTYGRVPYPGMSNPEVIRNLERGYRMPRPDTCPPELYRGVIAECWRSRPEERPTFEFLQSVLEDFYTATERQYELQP
T2 sequence (O60331 whole entry): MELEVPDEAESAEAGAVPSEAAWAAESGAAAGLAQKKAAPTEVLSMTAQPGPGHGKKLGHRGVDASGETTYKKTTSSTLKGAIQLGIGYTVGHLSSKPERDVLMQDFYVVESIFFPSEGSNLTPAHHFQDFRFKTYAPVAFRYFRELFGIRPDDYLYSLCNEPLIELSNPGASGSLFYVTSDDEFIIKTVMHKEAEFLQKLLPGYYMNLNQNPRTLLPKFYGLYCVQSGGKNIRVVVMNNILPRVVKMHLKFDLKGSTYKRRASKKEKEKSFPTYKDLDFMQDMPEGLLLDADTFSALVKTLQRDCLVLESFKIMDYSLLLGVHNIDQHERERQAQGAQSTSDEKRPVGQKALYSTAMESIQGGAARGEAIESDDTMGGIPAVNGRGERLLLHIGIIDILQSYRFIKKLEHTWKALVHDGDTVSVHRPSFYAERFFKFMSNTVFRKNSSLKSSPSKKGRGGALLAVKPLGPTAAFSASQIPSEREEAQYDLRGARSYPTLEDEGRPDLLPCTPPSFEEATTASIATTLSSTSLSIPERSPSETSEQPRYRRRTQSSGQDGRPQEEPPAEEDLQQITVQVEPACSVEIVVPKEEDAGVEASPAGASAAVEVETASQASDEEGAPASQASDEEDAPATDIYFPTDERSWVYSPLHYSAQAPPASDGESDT

inhibition at 10 µM (PIK3C2G (PI3K-C2 gamma); [4]) [%]	inhibition at 10 µM (PIP5K1C; [5]) [%]	inhibition at 10 µM (BLK; [6]) [%]	inhibition at 10 µM [1, 7] [%]	Structure (SMILES)	inhibition at 1 µM (PIK3C2G (PI3K-C2 gamma); [2]) [%]	inhibition at 10 µM (PIK3C2G (PI3K-C2 gamma); [3]) [%]	IC50 (PIK3C2G (PI3K-C2 gamma)) [nM]	inhibition at 1 µM (PIP5K1C; [2]) [%]	inhibition at 10 µM (PIP5K1C; [3]) [%]	inhibition at 1 µM (BLK; [2]) [%]	inhibition at 10 µM (BLK; [3]) [%]	inhibition at 1 µM [1, 2] [%]	inhibition at 10 µM [1, 3] [%]
–	–	–	–	COc1ccc2c(c1OC)c(=O)n1c3ccc(O)cc3c3ccnc2c31 [MW01, 5-Hydroxy-10,11-dimethoxy-9H-benzo[c]indolo[3,2,1-ij][1,5]naphthyridin-9-one]	92	94	≤ 2000	54	69	8	26	92	96
–	–	–	–	COc1ccc2cc3c(N)nn(C(=O)c4cccc(N(C)C)c4)c3nc2c1 [MW05, (3-Amino-7-methoxypyrazolo[3,4-b]quinolin-1-yl)-[3-(dimethylamino)phenyl]methanone]	56	87	≤ 2000	-1	26	0	-1	16	63
35	14	23	10	COc1ccc2c(c1)c1ccnc3c4nc(OC)ccc4c(=O)n2c13 [MW01-E6, 5,15-dimethoxy-1,11,14-triazapentacyclo[10.7.1,0^2,7.0^8,^20.0^13,^18]icosa-2(7),3,5,8(20),9,11,13(18),14,16-nonaen-19-one]	–	–	–	–	–	–	–	–	–
81	27	23	94	O=c1c2cnccc2c2nccc3c4cc(O)ccc4n1c32 [MW01-E18, 5-hydroxy-1,11,16-triazapentacyclo[10.7.1.0^2,^7.0^8,^20.0^13,^18]icosa-2(7),3,5,8(20),9,11,13(18),14,16-nonaen-19-one]	–	–	–	–	–	–	–	–	–
50	8	9	59	COc1ccc2c(c1)c1ccnc3c4ccnc(OC)c4c(=O)n2c13 [MW01-E14, 5,17-dimethoxy-1,11,16-triazapentacyclo[10.7.1.0^2,^7.0^8,^20.0^13,^18]icosa-2(7),3,5,8(20),9,11,13(18),14,16-nonaen-19-one]	–	–	–	–	–	–	–	–	–
27	-2	10	8	COc1ccc2nc3c(cc2c1)c(N)nn3C(=O)c1cccc(N(C)C)c1 [MW05-E2, 1-[3-(dimethylamino)benzoyl]-6-methoxy-1H-pyrazolo[3,4-b]quinolin-3-amine]	–	–	–	–	–	–	–	–	–
81	33	42	90	O=c1c2cc(O)ccc2c2nccc3c4cc(O)ccc4n1c32 [MW01-E10, 5,16-dihydroxy-1,11-diazapentacyclo[10.7.1.0^2,^7.0^8,^20.0^13,^18]icosa-2(7),3,5,8(20),9,11,13(18),14,16-nonaen-19-one]	–	–	–	–	–	–	–	–	–
